Consider two molecules from US20090226393A1 (NITTO DENKO CORPORATION, priority 2008, published 2009).

The conditions of data set [1]: mouse, in vivo.
The nature of data set [2]: Biodistribution in different organs (drug accumulation study). As to conditions: 48 hours post administration.
Method: Plasma, tumor and samples of the major organ were collected at intervals out to 340 hours. […] Pharmacokinetic parameters were estimated using WinNonlin software using a non-compartment model.
For each drug, groups of 6 mice were anesthetized at various time points and 0.3 ml of blood, obtained by cardiac puncture, was collected into heparinized tubes. Thereafter, mice were sacrificed before recovering from anesthesia and the following tissues were harvested and frozen from each animal: each of the 4 tumors, lung, liver, spleen, both kidneys, skeletal muscle and heart. […] For each drug a total 72 mice were required (6 mice/time point, 12 time points).
For data set [3] the following is noted: female, nu/nu, mouse, in vivo, iv, 40 mg/kg.
Data set [4] relates to NCI-H460 non-small cell lung cancer xenograft. The following applies: 550 mg/kg paclitaxel equivalent, IV, q7dx2, compared to Abraxane.
From the text: Dosage amounts may be adjusted based on the maximum tolerated dose (MTD) of the pharmaceutical composition.
Data set [5] relates to B16 melanoma.

For the molecule `CC(=O)O[C@H]1C(=O)[C@@]2(C)[C@H]([C@H](OC(=O)c3ccccc3)[C@]3(O)C[C@H](OC(=O)[C@H](O)[C@@H](NC(=O)c4ccccc4)c4ccccc4)C(C)=C1C3(C)C)[C@]1(OC(C)=O)CO[C@@H]1C[C@@H]2O` [PTX, Paclitaxel], the “detected in the feces” value in data set [1] is “approximately 72%”. Further, in data set [2], the “amount retained in kidney” value is given as “less than 2 μg/g”, the “amount retained in liver” value is reported as “less than 2 μg/g”, the “amount retained in lung” value is “less than 2 μg/g” and the “amount retained in spleen” value is on record as “less than 2 μg/g”. The “T1/2 Terminal” value in data set [3] is 51 h.
As to “poly-(gamma-L-glutamyl glutamine)-paclitaxel [PGGA70K-PTX35]”, in data set [4], the “% TGD (tumor growth delay)” value is reported as 136%. Also, the “tumor volume compared to Abraxane” value in data set [5] was “significantly reduced tumor volume”.
